Measurements from patent publication US11034650B2, “Compounds useful for treating a Mannheimia haemolytica or Histophilus somni infection” (Intervet Inc., priority 2016, dated 2021).
In brackets after ≈: the same amount, converted by molar mass.

Columns and labels:
Format in all cases: cell-based
[1] = system: Mannheimia haemolytica MH 12587 (1071, BRD field isolate, macrolide-resistance: erm+, E+); test: MIC, broth-microdilution (CLSI VET01-A4), strain MH 12587; conditions: Mannheimia haemolytica strain MH 12587, broth-microdilution; unit assumed
Method in brief: (§1)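 Test articles are arrayed as a twofold dilution range in microdilution trays. Wells are scored by naked eye, and the MIC is taken where turbidity first disappears.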

[2] = system: Pasteurella multocida PM 10775 (080130003051, BRD field isolate); test: MIC, broth-microdilution (CLSI VET01-A4), strain PM 10775; conditions: Pasteurella multocida strain PM 10775, broth-microdilution; unit assumed
Method in brief: as §1

[3] = system: Mannheimia haemolytica MH 10720 (154, BRD field isolate); test: MIC, broth-microdilution (CLSI VET01-A4), strain MH 10720; conditions: Mannheimia haemolytica strain MH 10720, broth-microdilution; unit assumed
Method in brief: as §1

[4] = system: Pasteurella multocida PM 6391 (ATCC 43137, reference strain); test: MIC, broth-microdilution (CLSI VET01-A4), strain PM 6391; conditions: Pasteurella multocida strain PM 6391, broth-microdilution; unit assumed
Method in brief: as §1

[5] = system: Pasteurella multocida PM 6267 (P 2225 (L386), reference strain, mouse infection strain); test: MIC, broth-microdilution (CLSI VET01-A4), strain PM 6267; conditions: Pasteurella multocida strain PM 6267, broth-microdilution; unit assumed
Method in brief: as §1

[6] = system: Mannheimia haemolytica MH 6374 (ATCC 33396, reference strain); test: MIC, broth-microdilution (CLSI VET01-A4), strain MH 6374; conditions: Mannheimia haemolytica strain MH 6374, broth-microdilution; unit assumed
Method in brief: as §1

[7] = system: Mannheimia haemolytica MH 13093 (XB0472-6014.1, BRD field isolate); test: MIC, broth-microdilution (CLSI VET01-A4), strain MH 13093; conditions: Mannheimia haemolytica strain MH 13093, broth-microdilution; unit assumed
Method in brief: as §1

[8] = system: Pasteurella multocida PM 12080 (IV102277-0093, BRD field isolate); test: MIC, broth-microdilution (CLSI VET01-A4), strain PM 12080; conditions: Pasteurella multocida strain PM 12080, broth-microdilution; unit assumed
Method in brief: as §1

[9] = system: Mannheimia haemolytica MH 6357 (M7/2, reference strain, cattle infection strain); test: MIC, broth-microdilution (CLSI VET01-A4), strain MH 6357; conditions: Mannheimia haemolytica strain MH 6357, broth-microdilution; unit assumed
Method in brief: as §1

[10] = system: Mannheimia haemolytica MH 13065 (XB0446-6003.9, BRD field isolate); test: MIC, broth-microdilution (CLSI VET01-A4), strain MH 13065; conditions: Mannheimia haemolytica strain MH 13065, broth-microdilution; unit assumed
Method in brief: as §1

Row | MIC PM 10775 [2] [µg/mL] | MIC PM 6391 [4] [µg/mL] | MIC PM 6267 [5] [µg/mL] | MIC PM 12080 [8] [µg/mL] | Structure (SMILES) | MIC MH 12587 [1] [µg/mL] | MIC MH 10720 [3] [µg/mL] | MIC MH 6374 [6] [µg/mL] | MIC MH 13093 [7] [µg/mL] | MIC MH 6357 [9] [µg/mL] | MIC MH 13065 [10] [µg/mL]
1 | ≤ 0.1 | ≤ 0.1 | ≤ 0.1 | ≤ 0.1 | CC(C)(O)[C@H](NC(=O)c1ccc(C#Cc2ccc(CNCc3ccco3)cc2)cc1)C(=O)NO [Compound 231] | 0.8 (≈ 1.73 µM) | ≤ 0.1 | 0.2 (≈ 0.433 µM) | 0.4 (≈ 0.867 µM) | 0.4 (≈ 0.867 µM) | 0.2 (≈ 0.433 µM)
2 | ≤ 0.1 | ≤ 0.1 | ≤ 0.1 | ≤ 0.1 | CC(C)(O)C(NC(=O)c1ccc(C#Cc2ccc(CNCc3cccs3)cc2)cc1)C(=O)NO (centres unmarked) [Compound 232] | 0.4 (≈ 0.838 µM) | ≤ 0.1 | ≤ 0.1 | 0.2 (≈ 0.419 µM) | 0.4 (≈ 0.838 µM) | ≤ 0.1
3 | ≤ 0.1 | 0.2 (≈ 0.412 µM) | ≤ 0.1 | ≤ 0.1 | Cc1ccc(CNCc2ccc(C#Cc3ccc(C(=O)NC(C(=O)NO)C(C)(C)O)cc3)cc2)cc1 (centres unmarked) [Compound 233] | 1.6 (≈ 3.3 µM) | ≤ 0.1 | 0.4 (≈ 0.824 µM) | 0.8 (≈ 1.65 µM) | 0.8 (≈ 1.65 µM) | 0.4 (≈ 0.824 µM)
4 | ≤ 0.1 | 0.4 (≈ 0.859 µM) | ≤ 0.1 | 0.2 (≈ 0.43 µM) | CC(C)(O)C(NC(=O)c1ccc(C#Cc2ccc(CNCC3CCCO3)cc2)cc1)C(=O)NO (centres unmarked) [Compound 234] | 6.3 (≈ 13.5 µM) | 0.4 (≈ 0.859 µM) | 3.1 (≈ 6.66 µM) | 6.3 (≈ 13.5 µM) | 6.3 (≈ 13.5 µM) | 3.1 (≈ 6.66 µM)
5 | ≤ 0.1 | ≤ 0.1 | ≤ 0.1 | ≤ 0.1 | CSC(C)(C)[C@H](NC(=O)c1ccc(C#Cc2ccc(CNC3CC3)cc2)cc1)C(=O)NO [Compound 235] | 1.6 (≈ 3.54 µM) | ≤ 0.1 | 0.8 (≈ 1.77 µM) | 0.4 (≈ 0.886 µM) | 0.4 (≈ 0.886 µM) | 0.4 (≈ 0.886 µM)
6 | ≤ 0.1 | ≤ 0.1 | ≤ 0.1 | ≤ 0.1 | CSC(C)(C)[C@H](NC(=O)c1ccc(C#Cc2ccc(CN3CCOCC3)cc2)cc1)C(=O)NO [Compound 238] | 3.1 (≈ 6.44 µM) | 0.8 (≈ 1.66 µM) | 3.1 (≈ 6.44 µM) | 1.6 (≈ 3.32 µM) | 1.6 (≈ 3.32 µM) | 1.6 (≈ 3.32 µM)
7 | ≤ 0.1 | 0.4 (≈ 0.797 µM) | 0.2 (≈ 0.399 µM) | 0.4 (≈ 0.797 µM) | CSC(C)(C)[C@H](NC(=O)c1ccc(C#Cc2ccc(CNCc3ccccc3)cc2)cc1)C(=O)NO [Compound 239] | 1.6 (≈ 3.19 µM) | 0.2 (≈ 0.399 µM) | 1.6 (≈ 3.19 µM) | 0.8 (≈ 1.59 µM) | 0.8 (≈ 1.59 µM) | 0.8 (≈ 1.59 µM)
8 | 0.2 (≈ 0.376 µM) | 0.8 (≈ 1.5 µM) | 0.2 (≈ 0.376 µM) | 0.4 (≈ 0.752 µM) | COc1ccc(CNCc2ccc(C#Cc3ccc(C(=O)N[C@H](C(=O)NO)C(C)(C)SC)cc3)cc2)cc1 [Compound 240] | 1.6 (≈ 3.01 µM) | 0.4 (≈ 0.752 µM) | 1.6 (≈ 3.01 µM) | 1.6 (≈ 3.01 µM) | 1.6 (≈ 3.01 µM) | 1.6 (≈ 3.01 µM)
9 | ≤ 0.1 | ≤ 0.1 | ≤ 0.1 | ≤ 0.1 | CSC(C)(C)[C@H](NC(=O)c1ccc(C#Cc2ccc(CNCc3ccncc3)cc2)cc1)C(=O)NO [Compound 241] | 0.8 (≈ 1.59 µM) | ≤ 0.1 | 0.8 (≈ 1.59 µM) | 0.4 (≈ 0.796 µM) | 0.4 (≈ 0.796 µM) | 0.4 (≈ 0.796 µM)
10 | 0.2 (≈ 0.43 µM) | 1.6 (≈ 3.44 µM) | 0.4 (≈ 0.859 µM) | 0.8 (≈ 1.72 µM) | CSC(C)(C)[C@H](NC(=O)c1ccc(C#Cc2ccc(CN3CCCC3)cc2)cc1)C(=O)NO [Compound 242] | 6.3 (≈ 13.5 µM) | 0.8 (≈ 1.72 µM) | 6.3 (≈ 13.5 µM) | 3.1 (≈ 6.66 µM) | 6.3 (≈ 13.5 µM) | 3.1 (≈ 6.66 µM)
11 | ≤ 0.1 | 0.8 (≈ 1.72 µM) | 0.2 (≈ 0.43 µM) | 0.4 (≈ 0.859 µM) | CSC(C)(C)[C@H](NC(=O)c1ccc(C#Cc2ccc(CNC3CCC3)cc2)cc1)C(=O)NO [Compound 243] | 3.1 (≈ 6.66 µM) | 0.4 (≈ 0.859 µM) | 3.1 (≈ 6.66 µM) | 1.6 (≈ 3.44 µM) | 3.1 (≈ 6.66 µM) | 1.6 (≈ 3.44 µM)
